Data set [1] can be described thus: Solubility in 100 mM glycylglycine buffer at pH 5.0 incubated for 18 hrs by UPLC analysis. Type of data set: physicochemical.
The target in data set [2] is T1, Amylin receptor AMY3; CALCR/RAMP3 (Homo sapiens, UniProt O60896+P30988).
T1 sequence (P30988 whole entry): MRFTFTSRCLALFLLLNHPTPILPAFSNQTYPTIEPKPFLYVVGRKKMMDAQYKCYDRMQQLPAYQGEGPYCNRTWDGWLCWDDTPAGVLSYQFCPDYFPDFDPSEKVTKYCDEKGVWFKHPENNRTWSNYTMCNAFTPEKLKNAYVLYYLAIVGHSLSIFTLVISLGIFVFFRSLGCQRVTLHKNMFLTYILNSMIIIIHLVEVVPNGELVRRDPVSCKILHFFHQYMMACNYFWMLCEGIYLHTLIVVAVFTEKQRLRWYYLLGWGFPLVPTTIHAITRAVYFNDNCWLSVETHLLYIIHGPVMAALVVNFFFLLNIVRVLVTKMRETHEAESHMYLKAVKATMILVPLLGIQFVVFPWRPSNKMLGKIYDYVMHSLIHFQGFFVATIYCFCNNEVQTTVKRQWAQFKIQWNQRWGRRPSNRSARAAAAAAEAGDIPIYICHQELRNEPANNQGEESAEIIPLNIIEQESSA
T1 sequence (O60896 whole entry): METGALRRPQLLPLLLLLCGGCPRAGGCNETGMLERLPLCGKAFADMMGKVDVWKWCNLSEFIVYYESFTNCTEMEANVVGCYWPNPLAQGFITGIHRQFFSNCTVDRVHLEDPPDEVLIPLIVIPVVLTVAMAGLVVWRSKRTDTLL
The experiment in a line: Agonist activity at human amylin receptor expressed in BHK570 cells co-expressing RAMP3 assessed as increase in intracellular cAMP concentration incubated for 3 hrs in absence of albumin by CRE luciferase reporter gene assay. Type of data set: functional, cell-based.

A short description of data set [3]: Solubility in 100 mM glycylglycine buffer at pH 3.0 incubated for 18 hrs by UPLC analysis. Type of data set: physicochemical.
The nature of data set [4]: Solubility in 100 mM bistrispropane buffer at pH 7.0 incubated for 18 hrs by UPLC analysis. The class given is physicochemical.
The nature of data set [5]: Solubility in 100 mM bistrispropane buffer at pH 6.5 incubated for 18 hrs by UPLC analysis. Type of data set: physicochemical.
Data set [6] can be described thus: Solubility in 100 mM glycylglycine buffer at pH 4.0 incubated for 18 hrs by UPLC analysis. Type of data set: physicochemical.
The target of data set [7] is T1, Amylin receptor AMY3; CALCR/RAMP3. The experiment in a line: Displacement of [125I]-labeled rat amylin from human amylin receptor expressed in BHK tkts13 whole cells co-expressing RAMP3 incubated for 60 mins by scintillation proximity assay. Type of data set: cell-based.
Data set [8] can be described thus: Solubility in 100 mM bistrispropane buffer at pH 8.0 incubated for 18 hrs by UPLC analysis. The class given is physicochemical.
The target in data set [9] is T2, Calcitonin receptor (Homo sapiens, UniProt P30988).
T2 sequence (P30988 whole entry): T1 sequence (P30988 whole entry)
Briefly: Agonist activity at human calcitonin receptor expressed in BHK570 cells assessed as increase in intracellular cAMP concentration incubated for 3 hrs in absence of albumin by CRE luciferase reporter gene assay. Type of data set: functional, cell-based.

A short description of data set [10]: Solubility in 100 mM bistrispropane buffer at pH 6.0 incubated for 18 hrs by UPLC analysis. Type of data set: physicochemical.
Data set [11] in a line: Solubility in 100 mM bistrispropane buffer at pH 7.5 incubated for 18 hrs by UPLC analysis. The class given is physicochemical.

Numbered stars: 1 amine (or outer) side, 2 acyl side, 3 side chain; on linkers, the order of the positions; unused ones are H or OH. Peptide text beside a SMILES is read from it. * marks the point of attachment. C18 diacid = O=C(O)CCCCCCCCCCCCCCCCC(=O)*; γGlu = O=C(O)[C@H](CCC(=O)[*:2])N[*:1]; C14 diacid = O=C(O)CCCCCCCCCCCCC(=O)*

solubility, EC50 and IC50 data for 4 molecules are collected here from ChEMBL document CHEMBL4420076, “Amylin and calcitonin receptor agonist” (2017).

As to `CC(C)C[C@H](NC(=O)[C@H](C)NC(=O)[C@H](C)NC(=O)[C@@H](NC(=O)[C@H](CO)NC(=O)[C@H](CC(C)C)NC(=O)[C@H](CCC(=O)O)NC(=O)[C@H](CO)NC(=O)[C@H](C)NC(=O)CC[C@H](NC(=O)CCCCCCCCCCCCC(=O)O)C(=O)O)[C@@H](C)O)C(=O)NCC(=O)N[C@@H](CCCNC(=N)N)C(=O)N[C@@H](CC(C)C)C(=O)N[C@@H](CO)C(=O)N[C@@H](C)C(=O)N[C@@H](CCC(=O)O)C(=O)N[C@@H](CC(C)C)C(=O)N[C@@H](Cc1cnc[nH]1)C(=O)N[C@@H](CCC(=O)O)C(=O)N[C@@H](CC(C)C)C(=O)N[C@@H](C)C(=O)N[C@H](C(=O)N[C@@H](CC(C)C)C(=O)N1CCC[C@H]1C(=O)N[C@@H](CCCNC(=N)N)C(=O)N[C@H](C(=O)N[C@@H](CCC(=O)O)C(=O)N[C@H](C(=O)NCC(=O)N1CCC[C@H]1C(=O)N[C@@H](CCC(=O)O)C(=O)N[C@@H](CO)C(=O)N1CCC[C@H]1C(N)=O)[C@@H](C)O)[C@@H](C)O)[C@@H](C)O` ({C14 diacid-γGlu}-ASELSTAALGRLSAELHELATLPRTETGPESP-NH2), the solubility at 18 h in data set [1], in data set [3], in data set [4], in data set [5], in data set [6] and in [8] was at least 200 µM in each case. Also, the solubility at 18 h in data set [10] and in data set [11] was at least 200 µM each time. The half-maximal effective concentration (EC50) in data set [2] was 0.008 nM; in data set [9], 0.003 nM. For the same molecule, the IC50 in data set [7] was 1.14 nM.

With `CC(C)C[C@H](NC(=O)[C@H](C)NC(=O)[C@H](C)NC(=O)[C@@H](NC(=O)[C@H](CO)NC(=O)[C@H](CC(C)C)NC(=O)[C@H](CCC(N)=O)NC(=O)[C@H](CO)NC(=O)[C@H](C)NC(=O)CC[C@H](NC(=O)CCCCCCCCCCCCCCCCC(=O)O)C(=O)O)[C@@H](C)O)C(=O)NCC(=O)N[C@@H](CCCNC(=N)N)C(=O)N[C@@H](CC(C)C)C(=O)N[C@@H](CO)C(=O)N[C@@H](C)C(=O)N[C@@H](CCC(N)=O)C(=O)N[C@@H](CC(C)C)C(=O)N[C@@H](Cc1cnc[nH]1)C(=O)N[C@@H](CCC(=O)O)C(=O)N[C@@H](CC(C)C)C(=O)N[C@@H](C)C(=O)N[C@H](C(=O)N[C@@H](CC(C)C)C(=O)N1CCC[C@H]1C(=O)N[C@@H](CCCNC(=N)N)C(=O)N[C@H](C(=O)N[C@@H](CCC(=O)O)C(=O)N[C@H](C(=O)NCC(=O)N[C@@H](CO)C(=O)NCC(=O)N[C@@H](CO)C(=O)N1CCC[C@H]1C(N)=O)[C@@H](C)O)[C@@H](C)O)[C@@H](C)O` ({C18 diacid-γGlu}-ASQLSTAALGRLSAQLHELATLPRTETGSGSP-NH2), the solubility at 18 h in data set [1], in [3], in [4], in data set [5], in data set [6] and in [8] was at least 200 µM throughout. The solubility at 18 h in [10] and in data set [11] was at least 200 µM each time. Further, the EC50 was 0.009 nM in [2] and 0.013 nM in [9]. Further, the IC50 in data set [7] is 0.428 nM.

In the case of `CC(C)C[C@H](NC(=O)[C@H](C)NC(=O)[C@H](C)NC(=O)[C@@H](NC(=O)[C@H](CO)NC(=O)[C@H](Cc1cnc[nH]1)NC(=O)[C@H](CCC(=O)O)NC(=O)[C@H](CO)NC(=O)[C@H](C)NC(=O)[C@H](CCC(=O)O)NC(=O)CCCCCCCCCCCCCCCCC(=O)O)[C@@H](C)O)C(=O)NCC(=O)N[C@@H](CCCNC(=N)N)C(=O)N[C@@H](CC(C)C)C(=O)N[C@@H](CO)C(=O)N[C@@H](C)C(=O)N[C@@H](CCC(=O)O)C(=O)N[C@@H](CC(C)C)C(=O)N[C@@H](Cc1cnc[nH]1)C(=O)N[C@@H](CCC(=O)O)C(=O)N[C@@H](CC(C)C)C(=O)N[C@@H](C)C(=O)N[C@H](C(=O)N[C@@H](CC(C)C)C(=O)N1CCC[C@H]1C(=O)N[C@@H](CCCNC(=N)N)C(=O)N[C@H](C(=O)N[C@@H](CCC(=O)O)C(=O)N[C@H](C(=O)NCC(=O)N1CCC[C@H]1C(=O)N[C@@H](CCC(=O)O)C(=O)N[C@@H](CO)C(=O)N1CCC[C@H]1C(N)=O)[C@@H](C)O)[C@@H](C)O)[C@@H](C)O` ({C18 diacid}-EASEHSTAALGRLSAELHELATLPRTETGPESP-NH2), the solubility at 18 h in data set [1], in data set [3], in data set [4], in data set [5], in [6] and in data set [8] was at least 200 µM in each case. In addition, the solubility at 18 h in [10] and in data set [11] was at least 200 µM throughout. Besides, the figures for the EC50 in [2] and in data set [9] were 0.008 nM and 0.006 nM, respectively. Also, in [7], the IC50 is 0.832 nM.

Take `CC(C)C[C@H](NC(=O)[C@H](C)NC(=O)[C@H](C)NC(=O)[C@@H](NC(=O)[C@H](Cc1cnc[nH]1)NC(=O)[C@H](CC(C)C)NC(=O)[C@H](CCC(=O)O)NC(=O)[C@H](CO)NC(=O)[C@H](C)NC(=O)[C@H](CCC(=O)O)NC(=O)CCCCCCCCCCCCCCCCC(=O)O)[C@@H](C)O)C(=O)NCC(=O)N[C@@H](CCCNC(=N)N)C(=O)N[C@@H](CC(C)C)C(=O)N[C@@H](CO)C(=O)N[C@@H](C)C(=O)N[C@@H](CCC(=O)O)C(=O)N[C@@H](CC(C)C)C(=O)N[C@@H](Cc1cnc[nH]1)C(=O)N[C@@H](CCC(=O)O)C(=O)N[C@@H](CC(C)C)C(=O)N[C@@H](C)C(=O)N[C@H](C(=O)N[C@@H](CC(C)C)C(=O)N1CCC[C@H]1C(=O)N[C@@H](CCCNC(=N)N)C(=O)N[C@H](C(=O)N[C@@H](CCC(=O)O)C(=O)N[C@H](C(=O)NCC(=O)N1CCC[C@H]1C(=O)N[C@@H](CCC(=O)O)C(=O)N[C@@H](CO)C(=O)N1CCC[C@H]1C(N)=O)[C@@H](C)O)[C@@H](C)O)[C@@H](C)O` ({C18 diacid}-EASELHTAALGRLSAELHELATLPRTETGPESP-NH2): the solubility at 18 h in data set [1], in data set [3], in data set [4], in [5], in data set [6] and in data set [8] was at least 200 µM in each case. Besides, the solubility at 18 h in [10] and in data set [11] was at least 200 µM throughout. Also, the 50% effective concentration (EC50) in data set [2] was 0.015 nM; in data set [9], 0.009 nM. The IC50 in [7] was 1.31 nM.
